Test results published in PMC4045409 (Biochemical and biophysical research communications, 2011).

What was measured:
α1D-AR + β1-syntrophin [1] = target: T1, α1D-AR + β1-syntrophin (Homo sapiens, UniProt P25100); test: [3H]-PI hydrolysis, HEK293 cells, agonist; format: cell-based
T1 sequence (P25100 1-572): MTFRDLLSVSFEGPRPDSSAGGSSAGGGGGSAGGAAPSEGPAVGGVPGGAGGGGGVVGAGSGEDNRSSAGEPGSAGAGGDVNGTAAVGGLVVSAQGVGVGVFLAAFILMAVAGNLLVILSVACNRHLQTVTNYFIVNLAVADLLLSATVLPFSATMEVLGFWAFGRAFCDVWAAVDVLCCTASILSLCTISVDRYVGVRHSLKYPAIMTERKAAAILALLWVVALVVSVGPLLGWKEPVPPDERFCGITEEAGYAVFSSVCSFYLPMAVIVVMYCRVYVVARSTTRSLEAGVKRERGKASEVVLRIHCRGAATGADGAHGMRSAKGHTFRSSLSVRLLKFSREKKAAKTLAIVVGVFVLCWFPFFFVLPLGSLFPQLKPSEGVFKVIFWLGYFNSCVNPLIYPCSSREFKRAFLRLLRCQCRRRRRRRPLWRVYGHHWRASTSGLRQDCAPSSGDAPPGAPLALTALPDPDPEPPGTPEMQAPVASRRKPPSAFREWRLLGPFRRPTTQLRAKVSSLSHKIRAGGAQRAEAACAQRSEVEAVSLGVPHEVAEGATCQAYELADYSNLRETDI
T1 sequence (Q99L88 2-537 partner): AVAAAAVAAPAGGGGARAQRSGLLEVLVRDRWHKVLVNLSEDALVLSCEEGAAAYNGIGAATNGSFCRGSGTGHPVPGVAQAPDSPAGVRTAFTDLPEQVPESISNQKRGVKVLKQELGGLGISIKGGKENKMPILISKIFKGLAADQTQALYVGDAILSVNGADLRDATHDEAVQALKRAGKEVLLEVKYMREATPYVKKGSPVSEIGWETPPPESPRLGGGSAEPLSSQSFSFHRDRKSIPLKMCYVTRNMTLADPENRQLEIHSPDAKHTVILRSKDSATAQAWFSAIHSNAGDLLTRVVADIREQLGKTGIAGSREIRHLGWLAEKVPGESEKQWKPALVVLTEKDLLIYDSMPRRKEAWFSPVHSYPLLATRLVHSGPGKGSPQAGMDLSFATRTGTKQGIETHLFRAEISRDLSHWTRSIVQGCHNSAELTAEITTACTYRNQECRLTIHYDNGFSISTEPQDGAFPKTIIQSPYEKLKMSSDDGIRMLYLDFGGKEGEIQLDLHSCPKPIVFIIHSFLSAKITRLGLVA

α1D-AR + α-syntrophin [2] = target: T2, α1D-AR + α-syntrophin (Homo sapiens, UniProt P25100); test: [3H]-PI hydrolysis, HEK293 cells, agonist; format: cell-based
T2 sequence (P25100 1-572): T1 sequence (P25100 1-572)
T2 sequence (Q61234 1-503 partner): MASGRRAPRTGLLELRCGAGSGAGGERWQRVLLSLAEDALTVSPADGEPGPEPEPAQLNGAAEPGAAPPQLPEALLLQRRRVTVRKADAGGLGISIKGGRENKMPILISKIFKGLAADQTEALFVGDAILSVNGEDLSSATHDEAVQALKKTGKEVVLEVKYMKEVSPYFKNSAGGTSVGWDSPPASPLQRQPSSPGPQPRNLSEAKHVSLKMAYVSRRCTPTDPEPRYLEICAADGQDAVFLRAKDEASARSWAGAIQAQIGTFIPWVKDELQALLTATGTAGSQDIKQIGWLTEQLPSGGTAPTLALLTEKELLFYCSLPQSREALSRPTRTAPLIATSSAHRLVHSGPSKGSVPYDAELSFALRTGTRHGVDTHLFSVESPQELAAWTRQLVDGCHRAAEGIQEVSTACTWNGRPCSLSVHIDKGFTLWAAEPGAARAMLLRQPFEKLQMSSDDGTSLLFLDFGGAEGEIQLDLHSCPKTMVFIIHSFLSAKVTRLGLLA

α1D-AR + β2-syntrophin [3] = target: T3, α1D-AR + β2-syntrophin (Homo sapiens, UniProt P25100); test: [3H]-PI hydrolysis, HEK293 cells, agonist; format: cell-based
T3 sequence (P25100 1-572): T1 sequence (P25100 1-572)
T3 sequence (Q61235 1-520 partner): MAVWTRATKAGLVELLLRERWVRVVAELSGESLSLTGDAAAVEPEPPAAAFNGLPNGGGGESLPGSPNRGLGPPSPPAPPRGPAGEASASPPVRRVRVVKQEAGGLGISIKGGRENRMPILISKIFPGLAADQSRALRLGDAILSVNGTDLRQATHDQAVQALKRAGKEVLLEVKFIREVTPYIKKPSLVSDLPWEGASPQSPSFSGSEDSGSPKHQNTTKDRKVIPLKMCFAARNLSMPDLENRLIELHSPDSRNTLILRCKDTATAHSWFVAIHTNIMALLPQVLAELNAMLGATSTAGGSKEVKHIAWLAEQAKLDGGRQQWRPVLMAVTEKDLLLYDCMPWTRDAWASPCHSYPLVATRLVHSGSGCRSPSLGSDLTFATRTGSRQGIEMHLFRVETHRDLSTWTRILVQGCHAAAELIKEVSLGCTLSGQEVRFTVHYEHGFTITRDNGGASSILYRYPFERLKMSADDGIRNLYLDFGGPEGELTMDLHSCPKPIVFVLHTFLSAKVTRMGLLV

α1D-AR + α-syntrophin [4] = target: T2, α1D-AR + α-syntrophin; test: [3H]-prazosin competition, HEK293 membranes; format: binding
α1D-AR + β2-syntrophin [5] = target: T3, α1D-AR + β2-syntrophin; test: [3H]-prazosin competition, HEK293 membranes; format: binding
α1D-AR + β1-syntrophin [6] = target: T1, α1D-AR + β1-syntrophin; test: [3H]-prazosin competition, HEK293 membranes; format: binding
[7] = 1 nM [3H]-prazosin, 30 min, 37 °C, value is -log10 of KI in M, single site

| EC50 (α1D-AR + β1-syntrophin [1]) | EC50 (α1D-AR + α-syntrophin [2]) | EC50 (α1D-AR + β2-syntrophin [3]) | SMILES | also measured |
| --- | --- | --- | --- | --- |
| 13.8 nM | 15.8 nM | 35.5 nM | CNCC(O)c1ccc(O)c(O)c1 (racemic) [(+/−) Epinephrine] |  |
|  |  |  | COc1ccccc1N1CCN(CCCNc2c(C)c(=O)n(C)c(=O)n2C)CC1 [5-MU] | Ki (α1D-AR + α-syntrophin [4]): 27.5 nM; Ki (α1D-AR + β2-syntrophin [5]): 36.3 nM; Ki (α1D-AR + β1-syntrophin [6]): 23.4 nM |
| 155 nM | 67.6 nM | 126 nM | CNC[C@H](O)c1cccc(O)c1 [(−) Phenylephrine] |  |
|  |  |  | CCS(=O)(=O)Nc1cccc(C(=C2CCCCC2)c2cnc[nH]2)c1 [A-315456] | +α-syntrophin (α1D-AR + α-syntrophin [4]; [7]): 7.25 ± 0.13 M; +β2-syntrophin (α1D-AR + β2-syntrophin [5]; [7]): 7.42 ± 0.21 M; +β1-syntrophin (α1D-AR + β1-syntrophin [6]; [7]): 7.27 ± 0.08 M |
